Reference: US20090123564A1, “NOVEL COMPOSITIONS FOR HAIR DISORDERS AND PROCESS OF PREPARATION THEREOF” (priority 2006, published 2009)

Columns and labels:
[1] = system: testosterone-induced alopecia in hamsters; test: Strength of Vernonia creams in testosterone-induced alopecia in hamsters; format: in vivo; conditions: day 22; 0-3 scale; creams 100 mg topical bid for 21 days; normal control=3
Protocol: Male hamsters (n=6/group) weighing 80-90 g procured from Central animal house of Panacea Biotec Ltd. were used. Drugs used to induce alopecia was Testosterone i.m. depot injection (Testoviron); B.No. K1007, German Remedies Limited; each ml of which contains Testosterone Enanthate USP . . . 250 mg and Arachis oil IP . . . qs. Four batches of Vernonia creams of different strengths were used for conducting the study namely B.No. 0629/010A (2% w/w), B.No. 0629/010C (0.2% w/w), B.No. 0629/014A (2% w/w) and B.No. 0629/014C (0.2% w/w) prepared according to Example-3 and Example 4 as stated hereinafter. The route of administration of the cream compositions was topical and the duration of study was 22 days. The fur over and around the flank organs of hamsters was shaved with electric clippers. Hamsters were divided into four different groups and allocated different treatments. The summary of different treatments is represented in Table-3.
Testosterone was administered intramuscularly in divided doses, whereas Vernonia cream(s) (100 mg) was applied topically twice daily. All the treatments were given for 21 days. On day 7, the fur around the flank organs was re-clipped. […] The hair growth presented as mean was analyzed by one-way ANOVA followed by Student-Newman-Keuls multiple-range test. […]

[2] = system: androgen induced alopecia in hamsters; test: Comparative efficacy of Vernonia anthelmintica extract against finasteride in androgen induced alopecia; format: in vivo; conditions: for Mean ± SEM hair growth on a 0-3 scale: hamsters given testosterone i.m., treatments twice daily for 21 days, control 2.75 ± 0.171
Protocol: Hamsters were divided into five different groups; one normal control group, three drug treated groups and one testosterone control group. On day 0 of the study, the fur over and around the flank organs was shaved with electric clippers. 95% alcohol (100 μl/site) was applied topically, twice daily to Testosterone Control and Normal control groups for 21 days. Saw Palmetto cream was applied topically (100 mg/site) twice daily for 21 days. 100 μl/site of 2% solution of Vernonia anthelmintica extract was applied topically, twice daily for 21 days. Finasteride (0.6 mg/kg) was administered orally twice daily for 21 days. Different groups except normal control group was administered testosterone (25 mg, i.m. in divided doses of 33.3 μl on day 0, 7, and 14) 1-hour post drug administration. At day 7, the fur around the flank organs was re-clipped. The amount of hair growth on the area surrounding the flank organs was visually graded at weekly intervals on a 0-3 scale (0=bald skin, 1=slight hair growth, 2=moderate hair growth and 3=full hair growth). The result is presented in table-2 and shown graphically in FIG. 3.

[3] = system: testosterone-induced alopecia in hamsters; test: Vernonia anthelmintica extract against testosterone-induced alopecia in hamsters; format: in vivo; conditions: day 22; visual grading on 0-3 scale (0=bald skin, 3=full hair growth); control=2.0
Protocol: The efficacy of an extract of Vernonia anthelmintica (prepared according to Example-1 as stated hereinafter) against testosterone-induced alopecia in hamsters was studied. Male hamsters (n=6/group) weighing 90-120 g were procured from central animal house of Panacea Biotec Ltd. for study. Drugs used to induce alopecia was Testosterone i.m. depot injection (Testoviron); B.No. K1007, German Remedies Limited; each ml of which contains Testosterone Enanthate USP . . . 250 mg and Arachis oil IP . . . qs. The route of administration of the cream compositions was topical and the duration of study was 22 days. Hamsters were divided into two different groups; one Vernonia anthelmintica extract treated groups and another testosterone control group. On day 0 of study, the fur over and around the flank organs would be shaved with electric clippers.
Testosterone was administered intramuscularly in divided doses, whereas Vernonia anthelmintica extract was applied topically twice daily for 21 days. On day 7, the fur around the flank organs was re-clipped. The amount of hair growth on the area surrounding the flank organs was visually graded on day 22 on a 0-3 scale (0=bald skin, 1=slight hair growth, 2=moderate hair growth and 3=full hair growth). Photographs of flank organ were taken on day 0 and 22. […]

[4] = system: testosterone-induced alopecia in hamsters; test: Dose-response of Vernonia extract gel versus Vernonia freeze dried juice gel in testosterone-challenged hamsters; format: in vivo; conditions: day 22; 0-3 scale; normal control=1.31±0.18
Protocol: A further study was performed to study the dose-response of Vernonia extract gel and to compare its hair growth promoting effect against Vernonia freeze dried juice gel. The Vernonia extract gel was prepared by making an organic solvent extract of Vernonia and formulating it into a gel composition. The Vernonia freeze dried juice gel was prepared by expressing the juice from fresh leaves and flowering tops of Vernonia followed by freeze drying and formulating it into a gel composition. Male hamsters (n=6-8/group) weighing 80-90 g procured from the Central animal house of Panacea Biotec Ltd. were used. Drugs used to induce alopecia was Testosterone i.m. depot injection (Testoviron); B.No. K1007, German Remedies Limited; each ml of which contains Testosterone Enanthate USP . . . 250 mg and Arachis oil IP . . . qs. The following were used for conducting the study namely Vernonia extract gels B.No. 0629/030A (0.5% w/w), B.No. 0629/030B (1% w/w) and B.No. 0629/030C (2% w/w); and Vernonia freeze dried juice gels B.No. 0629/026A (1.25% w/w) and B.No. 0629/026B (2.5% w/w) (prepared according to Example-5 and Example-6 as stated hereinafter). […]
Testosterone was administered intramuscularly in divided doses, whereas Vernonia cream (s) (100 mg) was applied topically twice daily. […] The hair growth presented as mean was analyzed by one-way ANOVA followed by Student-Newman-Keuls multiple-range test. […]

[5] = system: human carcinoma nasopharynx cells; conditions: cited from earlier work
leukenia cells L-1210 = conditions: L-1210 cells; cited from earlier work
leukenia cells P-388 = conditions: P-388 cells; cited from earlier work
[6] = system: dihydrotestosterone (DHT); conditions: cited from earlier work

## CCCCCCC(=O)O[C@H]1CC[C@H]2[C@@H]3CCC4=CC(=O)CC[C@]4(C)[C@H]3CC[C@]12C [Testosterone, Testosterone Enanthate]
[1]
  Hair growth score: 0.13
[2]
  Mean ± SEM hair growth on a 0-3 scale: 1.33 ± 0.211
[3]
  Hair growth score: 0.58±0.15
[4]
  Hair growth score: 0

## vernolide
[5]
  IC50, cytotoxic effects: 2.0 µg/mL
Leukenia cells L-1210
  IC50, antitumoral effects: 0.11 µg/mL
Leukenia cells P-388
  IC50, antitumoral effects: 0.13 µg/mL

## vernodaline
Leukenia cells L-1210
  IC50, antitumoral effects: 0.17 µg/mL
Leukenia cells P-388
  IC50, antitumoral effects: 0.11 µg/mL

## CC(C)(C)NC(=O)[C@H]1CC[C@H]2[C@@H]3CC[C@H]4NC(=O)C=C[C@]4(C)[C@H]3CC[C@]12C [Finasteride]
[2]; day 22
  Reversal of testosterone induced-hair loss: significantly reversed testosterone induced-hair loss
[2]
  Mean ± SEM hair growth on a 0-3 scale: 2.20 ± 0.339
[6]; scalp
  Decrease of DHT concentration in the scalp: ≤ 60%
[6]; serum
  Decrease of DHT concentration in the serum: up to 70%
